Measured values from patent publication EP4480497A1, “BIO-CONJUGATES FOR ONCOLOGY” (priority 2023, dated 2024).

Assays:
[1] = Tolerability (mortality, body weight, skin) in the LIXF HEP3B xenograft study (Example 7); type: in vivo, NMRI nude mice
Method: The experiment comprised a reference group (Group 1) dosed with phosphate buffered saline and four treatment groups (Groups 2 to 5). […] CROMOC62 was given subcutaneously every second week for 4 weeks at 32 (induction dosing on day 0) and 16 (day 14 and 28) mg/kg/d. Sorafenib was applied daily for 6 days in mono and combined therapy and additional 6 days (9-14) exclusively in monotherapy per oral at 200 mg/kg/d. The daily dose was split, the daily dosing interval was 6 hours. Mice were either sacrificed individually when their general condition required sacrifice or at termination of the experiment. The group size at the start of dosing was seven to eight mice per group, bearing orthotopic growing LIXF HEP3B. […] CROMOC62 was given at one dose levels (32 mg/kg on day 0 and 16 mg/kg/d on days 14 and 28) in monotherapy or in combination with sorafenib which was given at one dose level (200 mg/kg/d on days 0-5). The effect of sorafenib monotherapy was also assessed (200 mg/kg/d on day 0-5 and 9-14).

[2] = tested on: tumour xenograft LIXF HEP3B (hepatocellular carcinoma); test: Orthotopic hepatocellular carcinoma xenograft, anti-tumour efficacy (Example 7); type: in vivo, NMRI nude mice; details: seven to eight mice per group, each substance at its one regimen
Method: The experiment comprised a reference group (Group 1) dosed with phosphate buffered saline and four treatment groups (Groups 2 to 5). […] The daily dose was split, the daily dosing interval was 6 hours. Mice were either sacrificed individually when their general condition required sacrifice or at termination of the experiment. The group size at the start of dosing was seven to eight mice per group, bearing orthotopic growing LIXF HEP3B.

[3] = tested on: triple negative breast tumour cells MDA-MB231; test: ATPlite luminescence ATP assay in MDA-MB231 cells (Example 5); type: cell-based; details: MDA-MB231, ATP assay after a 72h treatment, Figure 5A
Method: Dose-response curves in triple negative breast tumour cells MDA-MB231 and IC50 values obtained from an ATP assay after a 72h treatment with CROMOC36, CROMOC36-DM1 and the unconjugated DM1 molecule is shown in Figure 5A. The x-axis indicates the drug concentration (nM) in log scale, and the y-axis indicates the % of cell viability as measured by the ATP levels in the treated cells relative to the DMSO control.
The cytotoxic effect of CROMOC-DM1 conjugates was evaluated on the MDA-MB-231 cell line by means of the ATPlite Luminescence ATP Detection Assay System. The cytotoxic effect of the different CROMOC conjugated with DM-1 was compared to that of non-conjugated CROMOCs. Cells treated only with the medium were used as control. Briefly, the cells were seeded in black 96-well plates at a density of 2000 cells/well. After 24 h, cells were treated with increasing concentrations of the conjugates (range 0.02 - 500 nM in CROMOC, n=11) for 72 hours. To quantify ATP production, cells were treated following the manufacturer's instructions, and luminescence was quantified by means of a Victor Nivo multi-plate reader (Perkin Elmer, Waltham, MA, USA). The percentage of cell viability was determined as (luminescencetreated cells/luminescencecontrol cells) × 100. IC50 values were calculated using GraphPad Prism 9.0 (San Diego, CA, USA) by a nonlinear regression model.

Row | SMILES | mortalities ([1]; LIXF HEP3B study, seven to eight mice per group, each substance at its one regimen) | maximum body weight loss ([1]; on day 16, sorafenib 12x200 mg/kg/d per oral) [%] | complete remissions (number of mice) [2] | partial remissions (number of mice) [2] | IC50 [3] [nM]
1 | CNC(=O)c1cc(Oc2ccc(NC(=O)Nc3ccc(Cl)c(C(F)(F)F)c3)cc2)ccn1 [sorafenib] | One out of eight | 2.5 | five | two | 
2 | COc1cc2cc(c1Cl)N(C)C(=O)C[C@H](OC(=O)[C@H](C)N(C)C(=O)CCS)[C@]1(C)O[C@H]1[C@H](C)[C@@H]1C[C@@](O)(NC(=O)O1)[C@H](OC)/C=C/C=C(\C)C2 [DM1, DM1 Maytansinoid] |  |  |  |  | ~0.95
